Results published in patent US20100210584A1, “LIQUID OR PASTE COMPOSITIONS INTENDED TO PROVIDE ELEMENTS ESSENTIAL FOR THE SYNTHESIS AND FORMATION OF PROTEOGLYCANS, IN PARTICULAR, FOR THE TREATMENT OF CARTILAGE DEGRADATION” (priority 2007, published 2010).
Like-named read-outs stand apart in the source and are kept apart here.

Legend:
arthritic knee joint = conditions: three to five injections at one-week intervals, on average; cited from earlier work
[1] = placebo-controlled; cited from earlier work
[2] = taken orally; cited from earlier work
[3] = cited from earlier work
[4] = beyond a pH of 7.0; cited from earlier work
[5] = cited from earlier work; remark: listed apart in the source
[6] = animals, labeled chondroitin; cited from earlier work
[7] = humans, dependent on the molecular weight; cited from earlier work
[8] = 800 to 1200 mg/day; cited from earlier work
[9] = Coloring (Maillard reaction) of aqueous solutions on storage; format: physicochemical; conditions: 6.0% in water by total weight of the composition
Protocol: At the chemical level, glucosamine, which can be of either natural or synthetic origin, is a glucose molecule to which an amino grouping has bonded. Consequently, in water without the addition of sugar, this molecule automatically leads to the appearance of a brown color of the solution by the condensation reaction of the different glucosamine molecules together. This appears clearly in an aqueous 7.5% glucosamine solution. After 8 months at 40° C., the solution takes on a caramel hue.
Three solutions have been produced, each containing 7.5% glucosamine by weight with respect to the total weight of the composition and 6.0% chondroitin sulfate by weight with respect to the total weight of the composition. In two solutions, anhydrous citric acid was added before the introduction of chondroitin sulfate. One of the solutions was heated at 100° C. for 10 minutes.

Compound: hyaluronic acid
- duration of efficacy (arthritic knee joint): 8-9 months

Compound: CC(=O)Oc1cccc2c1C(=O)c1c(OC(C)=O)cc(C(=O)O)cc1C2=O [Diacerein]
- articular joint space [1]: significant decrease in the articular joint space

Compound: N[C@H]1C(O)O[C@H](CO)[C@@H](O)[C@@H]1O (stereo partly shown) [glucosamine]
- absorption [2]: ~90%
- time until maximum concentration is reached [2]: 8 h
- efficacy on joint pain and swelling compared with ibuprofen ([3]; beginning in the second week of treatment): more effective than ibuprofen
- articular joint space ([3]; in vivo): preserves the articular joint space
- degradation [4]: degrades rapidly
- solubility in water and in an alcohol medium [5]: highly soluble

Compound: chondroitin sulfate
- absorption [6]: more than 66%
- solubility in alcohols ([5]; ethanol, propanol-1 and isopropanol): insoluble
- absorption [7]: around 15%
- Lequesne index [8]: improves the Lequesne index
- articular joint space [8]: preserves the articular joint space
- mobility [8]: improves mobility
- pain [8]: reduces pain
- intensity of coloring compared with a pure 7.5% glucosamine solution [9]: ten times less intense
